Measurements taken from the NIST ThermoML archive (doi:10.1016/j.jct.2008.10.016).

Experiments:
[1] = Drop volume
[2] = xn = mol fraction of the nth substance listed; conditions: Drop volume

CCCCCl [1-chlorobutane]
[1]
Conditions | surface tension liquid-gas [mN/m]
283.15 K | 24.73
288.15 K | 24.24
293.15 K | 23.64
298.15 K | 23.29
303.15 K | 22.62
308.15 K | 22.03
313.15 K | 21.53

CCCCCl [1-chlorobutane] + CCCCCC
surface tension liquid-gas [mN/m], [2]
Conditions | 283.15 K | 288.15 K | 293.15 K | 298.15 K | 303.15 K | 308.15 K | 313.15 K
x2 = 0.0493 | 24.17 | 23.68 | 23.11 | 22.74 | 22.08 | 21.5 | 21.04
x2 = 0.1016 | 23.7 | 23.21 | 22.63 | 22.27 | 21.62 | 21.03 | 20.59
x2 = 0.2048 | 22.96 | 22.46 | 21.88 | 21.52 | 20.89 | 20.28 | 19.84
x2 = 0.3038 | 22.32 | 21.83 | 21.28 | 20.93 | 20.32 | 19.69 | 19.28
x2 = 0.3967 | 21.82 | 21.32 | 20.79 | 20.43 | 19.83 | 19.18 | 18.79
x2 = 0.5015 | 21.29 | 20.78 | 20.25 | 19.89 | 19.31 | 18.64 | 18.27
x2 = 0.6086 | 20.85 | 20.31 | 19.77 | 19.39 | 18.82 | 18.14 | 17.81
x2 = 0.7097 | 20.48 | 19.93 | 19.4 | 19 | 18.46 | 17.77 | 17.47
x2 = 0.804 | 20.19 | 19.63 | 19.1 | 18.71 | 18.18 | 17.46 | 17.18
x2 = 0.9021 | 19.91 | 19.35 | 18.84 | 18.43 | 17.91 | 17.16 | 16.89
x2 = 0.9391 | 19.81 | 19.24 | 18.73 | 18.31 | 17.79 | 17.02 | 16.75

CCCCCCl [1-chloropentane]
[1]
Conditions | surface tension liquid-gas [mN/m]
283.15 K | 26.02
288.15 K | 25.58
293.15 K | 25.02
298.15 K | 24.46
303.15 K | 24.02
308.15 K | 23.51
313.15 K | 23.02

CCCCCCl [1-chloropentane] + CCCCCC
surface tension liquid-gas [mN/m], [2]
Conditions | 283.15 K | 288.15 K | 293.15 K | 298.15 K | 303.15 K | 308.15 K | 313.15 K
x2 = 0.0482 | 25.44 | 25.02 | 24.53 | 24.02 | 23.59 | 23.11 | 22.64
x2 = 0.1185 | 24.7 | 24.3 | 23.83 | 23.35 | 22.95 | 22.45 | 22.02
x2 = 0.1991 | 24 | 23.59 | 23.09 | 22.64 | 22.24 | 21.71 | 21.3
x2 = 0.308 | 23.2 | 22.76 | 22.25 | 21.78 | 21.37 | 20.8 | 20.41
x2 = 0.3925 | 22.62 | 22.17 | 21.67 | 21.2 | 20.75 | 20.16 | 19.8
x2 = 0.5087 | 21.91 | 21.44 | 20.94 | 20.47 | 20.03 | 19.4 | 19.05
x2 = 0.5953 | 21.41 | 20.94 | 20.47 | 20.02 | 19.56 | 18.91 | 18.56
x2 = 0.7076 | 20.85 | 20.37 | 19.9 | 19.45 | 18.98 | 18.3 | 18
x2 = 0.7889 | 20.47 | 19.98 | 19.5 | 19.04 | 18.56 | 17.88 | 17.58
x2 = 0.9069 | 19.97 | 19.44 | 18.94 | 18.5 | 17.99 | 17.25 | 16.99
x2 = 0.9474 | 19.81 | 19.24 | 18.74 | 18.29 | 17.79 | 17.05 | 16.77

CCCCCC [hexane]
[1]
Conditions | surface tension liquid-gas [mN/m]
283.15 K | 19.63
288.15 K | 19.04
293.15 K | 18.52
298.15 K | 18.06
303.15 K | 17.53
308.15 K | 16.74
313.15 K | 16.47
